# Like-named read-outs stand apart in the source and are kept apart here.
# Biological target: T1, wild type human POLγ (POLγA:WT) (Homo sapiens, UniProt P54098)
# T1 sequence (P54098 1-1239): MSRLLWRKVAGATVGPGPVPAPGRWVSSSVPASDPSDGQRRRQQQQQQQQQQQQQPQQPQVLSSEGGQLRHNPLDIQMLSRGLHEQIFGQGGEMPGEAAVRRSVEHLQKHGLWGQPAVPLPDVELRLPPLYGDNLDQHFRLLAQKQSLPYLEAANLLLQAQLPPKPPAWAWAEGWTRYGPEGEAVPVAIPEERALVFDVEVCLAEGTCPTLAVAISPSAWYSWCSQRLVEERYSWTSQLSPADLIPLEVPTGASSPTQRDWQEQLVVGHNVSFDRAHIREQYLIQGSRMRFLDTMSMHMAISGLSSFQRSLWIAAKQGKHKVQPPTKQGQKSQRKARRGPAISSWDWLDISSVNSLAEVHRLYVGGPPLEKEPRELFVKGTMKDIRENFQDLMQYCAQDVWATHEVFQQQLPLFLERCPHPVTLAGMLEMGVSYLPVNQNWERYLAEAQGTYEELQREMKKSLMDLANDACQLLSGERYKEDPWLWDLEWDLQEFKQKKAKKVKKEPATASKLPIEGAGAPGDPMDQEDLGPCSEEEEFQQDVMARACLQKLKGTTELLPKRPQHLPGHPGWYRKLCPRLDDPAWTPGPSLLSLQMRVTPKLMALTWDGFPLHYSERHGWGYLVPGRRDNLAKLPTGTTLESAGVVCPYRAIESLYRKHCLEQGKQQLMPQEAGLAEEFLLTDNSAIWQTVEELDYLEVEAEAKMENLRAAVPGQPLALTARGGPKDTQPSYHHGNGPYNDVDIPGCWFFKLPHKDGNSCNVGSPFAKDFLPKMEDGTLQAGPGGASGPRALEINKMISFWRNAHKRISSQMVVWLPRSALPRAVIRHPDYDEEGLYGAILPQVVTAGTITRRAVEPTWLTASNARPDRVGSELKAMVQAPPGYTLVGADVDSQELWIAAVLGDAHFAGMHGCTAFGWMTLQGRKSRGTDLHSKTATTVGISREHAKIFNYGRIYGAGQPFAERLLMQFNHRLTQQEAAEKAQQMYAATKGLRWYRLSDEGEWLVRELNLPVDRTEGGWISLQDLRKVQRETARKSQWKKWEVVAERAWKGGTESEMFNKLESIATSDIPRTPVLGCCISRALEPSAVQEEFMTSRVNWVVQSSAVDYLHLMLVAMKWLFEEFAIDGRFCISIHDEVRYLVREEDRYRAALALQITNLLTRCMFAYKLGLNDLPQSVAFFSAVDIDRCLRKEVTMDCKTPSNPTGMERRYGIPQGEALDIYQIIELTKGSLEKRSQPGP
# T1 sequence (Q9UHN1 1-485 partner): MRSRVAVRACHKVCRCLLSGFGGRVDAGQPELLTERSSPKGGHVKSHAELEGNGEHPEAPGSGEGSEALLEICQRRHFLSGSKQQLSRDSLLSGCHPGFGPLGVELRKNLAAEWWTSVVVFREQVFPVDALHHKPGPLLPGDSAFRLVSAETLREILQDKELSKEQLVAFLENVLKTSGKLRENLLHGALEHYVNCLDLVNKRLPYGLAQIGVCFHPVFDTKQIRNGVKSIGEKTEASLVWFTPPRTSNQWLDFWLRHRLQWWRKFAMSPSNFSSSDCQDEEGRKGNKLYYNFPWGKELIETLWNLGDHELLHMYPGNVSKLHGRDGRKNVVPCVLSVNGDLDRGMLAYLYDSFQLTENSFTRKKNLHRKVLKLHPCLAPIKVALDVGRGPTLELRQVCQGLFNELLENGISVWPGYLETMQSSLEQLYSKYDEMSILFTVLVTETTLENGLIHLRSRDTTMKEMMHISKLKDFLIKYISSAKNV
# Test: DNA polymerization assay, wild type POLγ
# Format: biochemical
# Procedure: DNA Polymerization Assay to Monitor Effects on Human Wildtype POLγ and Four Disease-Causing Mutant Variants of Human POLγ.
# The ability of small molecules to stimulate the polymerase activity of POLγ was analyzed in a quantitative fluorescence SYBR Green I assay with fluorescence intensity (FI) readout.
# In the presence of dNTPs, wild type human POLγ and mutant derivatives thereof were incubated with single-stranded, circular M13mp18 ssDNA hybridized to a short DNA oligonucleotide that functions as a primer for initiation of DNA synthesis. POLγ and mutant derivatives thereof will extend the primer and use the M13mp18 molecule as a template to synthesize long stretches of double-stranded DNA. SYBR Green I, which is a double-stranded DNA-binding dye, was used to quantify formation of double-stranded DNA in the reaction. When bound to double-stranded DNA, SYBR Green I fluorescence increases by up to 100-fold.
# The assay was performed in the 384-well plate format. Upon addition of compounds, changes in double-stranded DNA synthesis activity can be monitored by following effects on fluorescent intensity.
# The reactions also contained the accessory POLγB subunit, and the human mitochondrial single-stranded DNA binding protein (mtSSB).
# The DNA template mixture used in the assay contained 0.5 nM primed M13 mp18 ssDNA, 400 nM mtSSB, 0.1 mM Tris-HCl (pH 8.0), 0.1 mM dNTP, 10 mM MgCl2, 0.1 mg/mL BSA, 1 mM TCEP solution, and 0.02% Triton X-100. The DNA template mixture for the wild type protein contained either 100 μM dNTP, 1 μM dNTP, or 0.1 μM dNTP, designated in Table 2 as 100 μM, 1 μM, and 0.1 μM, respectfully.
# Microplates with compounds (0.1 μL in each well) to be tested in the assay were prepared from 10 mM compound stocks in 100% DMSO, and equal amounts of DMSO without any compound were added to positive and negative control wells.
# The protein mixture was dispensed (5 μL into each well) into compound plates and incubated at 37° C. for 15 minutes. After incubation, 5 μL of the DNA template mixture was dispensed into each well. The plates were then incubated at 37° C. for 2 hours.
# During incubation, a combined stop buffer and detection reagent solution was prepared. The buffer contained 25 mM EDTA (pH 8.0), 0.02% Triton X-100, and SYBR Green I [Invitrogen] diluted 10,000× (for fluorescent readout). EDTA will stop the enzymatic reaction by chelating magnesium ions.
# [1] = 100 μM dNTP, read-out: WT AC50 (μM) at 100 μM
AC50 [1] [µM],"AC50 (0.1 μM dNTP, read-out: WT AC50 (μM) at 0.1 μM) [µM]",SMILES
> 10,–,"Cc1cnc(-c2ccc(C)c(NS(=O)(=O)c3cc(C)c(Cl)cc3C)c2)s1 [Example 98, 4-chloro-2,5-dimethyl-N-(2-methyl-5-(5-methylthiazol-2-yl)phenyl)benzenesulfonamide]"
> 100,–,"Cc1cc(S(=O)(=O)Nc2cccc(C(=O)N(C)C(C)CO)c2)c(C)cc1Cl (single isomer, unassigned) [Example 14, 3-((4-chloro-2,5-dimethylphenyl)sulfonamido)-N-(1-hydroxypropan-2-yl)-N-methylbenzamide]"
> 10,–,"Cc1cc(S(=O)(=O)Nc2cccc(C(=O)N3CCCC3)c2)c(C)cc1Cl [Example 119, 4-chloro-2,5-dimethyl-N-(3-(pyrrolidine-1-carbonyl)phenyl) benzenesulfonamide]"
> 10,5,"Cc1cnc(-c2ccc(Cl)c(NS(=O)(=O)c3cc(C)c(Cl)cc3C)c2)s1 [Example 102, 4-chloro-N-(2-chloro-5-(5-methylthiazol-2-yl)phenyl)-2,5-dimethylbenzenesulfonamide]"

# Reference: US20260138961A1, “MODULATORS OF MITOCHONDRIAL DNA REPLICATION” (Pretzel Therapeutics, Inc., priority 2022, published 2026)
